Drawing on patent US6936608B2, “Imidazo-triazine derivatives as ligands for GABA receptors” (Merck Sharp & Dohme Ltd., priority 2000, dated 2005), this text covers melting point for 13 compounds.

Counter-ions that a name gives are not always drawn.

What is called melting point is the temperature, or range, at which the solid turns liquid. `CC(C)(O)c1cnn2c(-c3ccc(F)c(-c4ccc(F)cn4)c3)cnc2n1` [Example 29, 2-{7-[4-Fluoro-3-(5-fluoropyridin-2-yl)phenyl]imidazo[1,2-b][1,2,4]triazin-3-yl}propan-2-ol]: the melting point amounted to 222 °C.
For `Cc1cnn2c(-c3cccc(-c4ccccc4C#N)c3)cnc2n1` [Example 1, 3′-(3-methylimidazo[1,2-b][1,2,4]triazin-7-yl)biphenyl-2-carbonitrile] the value was 211 to 216 °C; for `CC(C)(O)c1cnn2c(-c3cccc(-c4ccccc4C#N)c3)cnc2n1` [Example 22, 3′-[3-(1-Hydroxy-1-methylethyl)imidazo[1,2-b][1,2,4]triazin-7-yl]biphenyl-2-carbonitrile], 166 °C; for `CC(C)(O)c1cnn2c(-c3ccc(F)c(-c4ccncc4)c3)cnc2n1` [Example 15, 2-{7-[4-Fluoro-3-(pyridin-4-yl)phenyl]imidazo[1,2-b][1,2,4]triazin-3-yl}propan-2-ol], 233 to 237 °C.
For `N#Cc1ccccc1-c1cccc(-c2cnc3nc(C(F)(F)F)cnn23)c1F` [Example 7, 2′-Fluoro-3′-(3-trifluoromethylimidazo[1,2-b][1,2,4]triazin-7-yl)biphenyl-2-carbonitrile] the value was 167 to 168 °C; for `CC(C)(O)c1cnn2c(-c3cccc(-c4ccncc4)c3F)cnc2n1` [Example 19, 2-{7-[2-Fluoro-3-(pyridin-4-yl)phenyl]imidazo[1,2-b][1,2,4]triazin-3-yl}propan-2-ol], 221 to 223 °C; for `CC(C)(O)c1cnn2c(-c3ccc(F)c(-c4ccccc4C#N)c3)cnc2n1` [Example 16, 2′-Fluoro-5′-[3-(1-hydroxy-1-methylethyl)imidazo[1,2-b][1,2,4]triazin-7-yl]biphenyl-2-carbonitrile], 187 °C.
In turn, `CC(C)(F)c1cnn2c(-c3ccc(F)c(-c4c(F)cccc4C#N)c3)cnc2n1` [Example 25, 6,2′-Difluoro-5′-[3-(1-fluoro-1-methylethyl)imidazo[1,2-b][1,2,4]triazin-7-yl]biphenyl-2-carbonitrile] showed a melting point of 187 to 188 °C.
For `N#Cc1ccccc1-c1cc(-c2cnc3nccnn23)ccc1F` [Example 5, 2′-Fluoro-5′-(imidazo[1,2-b][1,2,4]triazin-7-yl)biphenyl-2-carbonitrile] the value was 211 to 215 °C; for `Fc1ccc(-c2cnc3nc(C(F)(F)F)cnn23)cc1-c1ccccn1` [Example 6, 7-[4-Fluoro-3-(pyridin-2-yl)phenyl]-3-trifluoromethylimidazo[1,2-b][1,2,4]triazine], 128 to 131 °C.
For `CC(C)(O)c1cnn2c(-c3ccc(F)c(-c4cccnc4)c3)cnc2n1` [Example 14, 2-{7-[4-Fluoro-3-(pyridin-3-yl)phenyl]imidazo[1,2-b][1,2,4]triazin-3-yl}propan-2-ol] the value was 199 to 200 °C; for `CC(C)(F)c1cnn2c(-c3ccc(F)c(-c4cccnc4)c3)cnc2n1` (as salt: hydrochloride) [Example 3, 3-(1-Fluoro-1-methylethyl)-7-[4-fluoro-3-(pyridin-3-yl)phenyl]imidazo[1,2-b][1,2,4]triazine], 113 to 126 °C.
For `N#Cc1ccccc1-c1cc(-c2cnc3nc(C(F)(F)F)cnn23)ccc1F` [Example 2, 2′-Fluoro-5′-(3-trifluoromethylimidazo[1,2-b][1,2,4]triazin-7-yl)biphenyl-2-carbonitrile] the value was 168 to 174 °C.
